Laboratory results: a melting point compilation (Tetko et al.; mined from patent text by program, amines drawn as free bases though some values may be those of a salt)

Compound	melting point
Cc1ccc(-n2nc(N3CCN(C(N)=O)CC3)c3ccccc32)cc1	146 to 148 °C
CCOP(=O)(OCC)c1cc2cc(N)c(C(F)(F)F)cc2[nH]c1=O	240 to 244 °C
CN1CCN(S(=O)(=O)c2cccc(-c3cc(-c4nc(-c5ccc(C(F)(F)F)cc5)cc(C(F)(F)F)n4)ccn3)c2)CC1	205 °C
CCSc1nc(Cl)nc2cccnc12	101 to 103 °C
CCOC(=O)c1sc(Oc2ccccc2)c2c1CCCC2=O	125 to 127 °C
CCCNc1cc(-c2c(-c3cccc(C)c3)nc3cccnn23)ccn1	128 to 129 °C
O=C(O)c1cn(-c2cccnc2)nc1Br	270 to 278 °C
CCCCc1cc2cc(NC(C)=O)ccc2o1	71 to 73 °C
COC(=O)Cc1ccc(C(C)(C)C)c([N+](=O)[O-])c1	92 to 95 °C
O=Cc1csc2ccc(O)cc12	200 °C
Cc1cc([N+](=O)[O-])c(NC(C)C(=O)N(C)O)c([N+](=O)[O-])c1 (stereo not given)	171 to 172 °C
CC(C)n1nc(-c2c(-c3ccccc3)nn3ccc(OCC(=O)NC4CC4)cc23)ccc1=O	199 to 200 °C
Brc1ccc(N2CCN(Cc3c[nH]c4ncccc34)CC2)cc1	234 to 238 °C
CCCCCCCCOc1ccc(C(=O)Oc2ccc3c(c2)C(C)c2cc(O)ccc2-3)cc1 (stereo not given)	140 to 143 °C
Clc1cc(-n2cncn2)ncn1	93 to 97 °C
CCCOC(=O)C1=C(N)NC(C)=C(C(=O)OCC)C1c1cccc([N+](=O)[O-])c1 (stereo not given)	168 °C
CCCc1sc2nc(CN(CC)CC)c(C(=O)OCC)c(-c3ccc(Cl)cc3)c2c1C	82 to 83 °C
COC(=O)COc1ccc2cc(-c3cnc(Cc4ccccc4)o3)ccc2c1	236 to 238 °C
COc1ccc(CCn2cnc3ccc(-c4cccc(C(=O)NCCN5CCCC5)c4)nc32)cc1OC	106 to 107 °C
Cc1cc(-c2ccc(C(F)(F)F)cc2)cn2c(-c3cc(-c4ncon4)c(S(N)(=O)=O)s3)cnc12	285 °C
CCCc1cc(-c2cc(OC)c3c(C)c(C)c(=O)oc3c2)on1	94 °C
COC(=O)c1ccc2c(c1)C=CC(=C(Cl)Cl)CO2	119 to 121 °C
CCOP(=S)(OCC)N1C(=O)c2ccccc2C1=O	81 to 83 °C
Cc1c2c(cn1C)NC(=O)C(OC(=O)CCCN1C(=O)c3ccccc3C1=O)N=C2c1ccccc1 (stereo not given)	210 to 212 °C
O=c1[nH]c2cc(Cl)cc(OCCNCc3cccs3)c2[nH]1	179 to 180 °C
COc1ccc(F)c(C(N)=O)c1F	167 to 169 °C
NS(=O)(=O)c1ccc(NC(=O)Nc2ccccc2-c2ccccc2)cc1	229 to 231 °C

Compound	melting point
CCCCCCCCCCCCCC(CP(c1ccccc1)c1ccccc1)C(C)CP(c1ccccc1)c1ccccc1 (stereo not given)	105 to 106 °C
O=C(Nc1ccc(CCO)c(CO)c1)OCc1ccccc1	101 to 103 °C
O=C(Cl)c1cc2n(c1)CCc1ccccc1C2=O	147 °C
CC(=O)Nc1ccc(O[C@@H]2CNC[C@H]2O)cc1 (relative stereo)	200 °C
Nc1[nH]nc(-c2ccc(F)cc2)c1-c1ccncc1	> 250 °C
CCOC(=O)C(Cc1ccc(CC(F)(F)C(F)(F)F)cc1)C(=O)c1cccc(Cl)c1 (stereo not given)	81 to 82 °C
N#Cc1[nH]c(-c2c(Cl)cc(C(F)(F)F)cc2Cl)nc1Br	270 to 272 °C
COCC1(C)OC(=O)N(c2cc(Cl)cc(Cl)c2)C1=O (stereo not given)	108 to 111 °C
CC(C)=NNc1cnn(-c2cccc(C(F)(F)F)c2)c(=O)c1	255 to 257 °C
COc1ccc(N2CCN(c3c(C)c(C)c4c(c3C)C(c3ccsc3)C(C)(C)O4)CC2)cc1 (stereo not given)	128 to 131 °C
CCn1cc(C(=O)C(=O)O)c2ccc(-c3ccc(OC(F)(F)F)cc3)cc21	204 to 205 °C
COCC1CN(c2ccc(C3CCCCC3)c([N+](=O)[O-])c2)C(=O)O1 (racemic)	105 to 106 °C
CC(=O)ON1C(C)(C)CC2(CC1(C)C)OCC(C)(C)CO2	109 to 111 °C
Cn1c([N+](=O)[O-])cnc1C1=NOC2CCCC12 (stereo not given)	89.5 to 91.5 °C
CCOC(=O)c1cccn1CCN1CCC(=C2c3ccccc3CCn3ccnc32)CC1	158 °C
CSc1nc(-c2ccncc2)n(-c2ccc(C(C)C)cc2)c(=O)c1C#N	173 to 175 °C
COc1nc(NC(C)C)nc(NC2CC2)n1	77 to 80 °C
COc1ccc(-c2ccc(Cl)nn2)c(OCC(O)CNC(C)C)c1 (stereo not given)	128 to 129 °C
COC(=O)C(C(=O)OC)c1ccccc1COc1ccccc1C	99 to 103 °C
C#CCn1cc(Br)cnc1=O	139 to 141 °C
CCCCCCCCc1ccc(CCC(C)(CCOC(C)=O)NC(C)=O)cc1 (stereo not given)	137 to 141 °C
NC1CCCCC1C(O)c1ccccc1 (stereo not given)	77 to 85 °C
Nc1cc(Oc2ccccc2)c([N+](=O)[O-])cc1Cl	122 to 124 °C
O=C(O)c1cc([N+](=O)[O-])c(-c2ccccc2)c([N+](=O)[O-])c1	219 to 221 °C
COc1cc2c(cc1Nc1ncc(Cl)c(Nc3ccccc3S(=O)(=O)N(C)C)n1)CCN(CCS(C)(=O)=O)CC2	84 to 101 °C
c1ccc(COc2cccc(CSc3nc4cnccc4[nH]3)c2)cc1	161 to 164 °C
CC(C(=O)NO)S(=O)Cc1ccc(Cl)cc1 (stereo not given)	132 to 133 °C

Compound	melting point
CCC1(c2c[nH]cn2)Cc2ccc(N)cc2C1 (stereo not given)	145 to 152 °C
Cc1nnc2n1-c1ccc(C#CCC3C(=O)Nc4ccccc43)cc1C(c1ccccc1Cl)=NC2 (stereo not given)	141 to 143 °C
CC(=O)c1ccc(S(=O)(=O)NCc2ccncc2)cc1	162 to 167 °C
CNS(=O)(=O)c1ccc(N2CCN(c3ccncc3)CC2)cc1	204 to 206 °C
Cc1cn2c(c1C(=O)OC(C)C)SCC2CC(N)=O (stereo not given)	143 to 146 °C
N#CSc1cc(Cl)c(NCCC(=O)O)cc1Cl	133 to 135 °C
C=C(CN(C)C)C(O)c1ncc2c(c1O)COC2C1CCCCC1 (stereo not given)	180 to 184 °C
COC(=O)c1cscc1NC(=O)C(F)Cl (stereo not given)	51 to 54 °C
CS(=O)(=S)OCCCCCCCCCCOS(C)(=O)=S (stereo not given)	45 to 52 °C
CCOc1nc2cccc(C(Br)Br)c2c(=O)o1	98 to 99 °C
Cc1cc(C)cc(Oc2ccc(-n3ccnc3)nn2)c1	170 °C
CCOC(=O)c1ccc(-c2cccc(CN)n2)cc1	141 to 143 °C
CC1OC(n2cnc3c(N)nc(N)nc32)C(O)C1O (stereo not given)	135 to 138 °C
CCC1CCC(C)N(C(=O)CN(C(=O)CNC(=O)Nc2cccc(C)c2)c2ccccc2)C1 (stereo not given)	158 °C
C=C(c1ccc2nc(N)n(S(=O)(=O)C(C)C)c2c1)c1cc(F)ccc1F	161 to 164 °C
COc1ccc(Cc2ccc3nc(N)nc(N)c3c2)cc1	207 to 209 °C
O=c1oc2cc(O)ccc2c2c1CCCCC2	189 to 190 °C
CC(=O)Oc1cc2c(c3ccccc13)N(C(C)=O)c1ccccc1S2	141 to 142 °C
CCCN(CCC)C(Cc1cccc(OC)c1N(C(C)=O)C(C)=O)(C(=O)OCC)C(=O)OCC	72 to 75 °C
COc1cccc(Sc2ccccc2CC(=O)O)c1	63 to 65 °C
CN(CCCN)CC(O)C(O)C(O)C(O)CO (stereo not given)	106 °C
CC(C#Cc1cccc(Oc2ccccc2)c1)N(O)C(N)=O (stereo not given)	110 to 115 °C
O=C1CCC(c2c[nH]c3ncccc23)CC1	162 to 164 °C
Oc1ccc(-c2nc3ccccc3nc2-c2ccc(O)cc2)cc1	336 to 338 °C
CCc1cc(OC)c(N)c2ccccc12	80 °C
C/C=C(\Br)C(=O)Nc1cccc(F)c1	44 to 45.5 °C
COc1cc2c(cc1O)C1Cc3c(Cl)cc(OC)c(O)c3CN1CC2 (stereo not given)	136 to 138 °C

Compound	melting point
CCCc1nc(C)c2c(=O)[nH]c(N)nn12	266 °C
Cc1cc(-c2ccc(-c3ccc(F)cc3)cc2)n[nH]c1=O	247 to 248 °C
CC(O)c1cc(N)ccc1N (stereo not given)	124 °C
CC1Nc2ccc(-c3ccc(C#N)s3)cc2C(C)(C)O1 (stereo not given)	172 to 173 °C
c1cc(OCC2CO2)c2cnsc2c1 (stereo not given)	90 to 91 °C
Cc1cc(O)c(C)c(O)c1C#N	162 to 163 °C
O=C(O)CN1C(=O)C(=Cc2ccc(OCc3ccc(C(F)(F)F)cc3)c(OCc3ccccc3)c2)SC1=S	257 to 263 °C
CC(C)(C)C(=O)Nc1ccc2oc3c(c2c1)CCCCC3	208 to 209 °C
CS(=O)(=O)c1ccc(C2=C(c3ccc(F)c(Cl)c3)CCC2)cc1	87.5 to 88.5 °C
CN(C=O)c1ccc(Cl)cc1C(=O)c1ccccc1	93.5 to 94.5 °C
COc1cc2c(cc1OC)-c1ncc(C(=O)O)c(=O)n1CC2	264 to 266 °C
CC(=O)c1ccc(NS(C)(=O)=O)c(Nc2ccc(F)cc2F)c1	113 to 115 °C
COc1ccc(/C=C/C(=O)Nc2ccccc2)cc1OC	131 to 133 °C
Cc1nc(OC(F)F)c(C#N)c(N2CCc3ccccc3CC2)n1	143 °C
CC#CCOc1ccc(S(=O)(=O)C(C(=O)NO)C2CCN(Cc3ccc(OC)cc3)CC2)cc1 (stereo not given)	138 °C
CCOC(=O)COc1cc(C2COc3c(C)c(C)c(NC(=O)CC(C)(C)C)c(C)c32)ccc1C(C)C (stereo not given)	149 to 150 °C
COc1cc(OCC2CCCCC2)ccc1/C=C/c1cc(/C=C/c2ccc3cc[nH]c3c2)[nH]n1	104 to 108 °C
COc1cc(C)nc2nc(S(=O)(=O)Nc3c(Cl)ccc(C)c3Cl)nn12	239 to 242 °C
COC(=O)C1=C(C)NC(CO)=C(C(=O)OC)C1c1ccccc1C#N (stereo not given)	177 to 178 °C
O=C(O)c1cc2cc3c(cc2c2cc(OCc4ccccc4)ccc12)OCO3	263 to 265 °C
Brc1ccc(C2CC(n3cncn3)c3ccccc3N2)cc1 (stereo not given)	158 to 160 °C
CC(=O)c1ccc(Nc2cccc(-c3ccccn3)c2)c([N+](=O)[O-])c1	195 to 196 °C
N#Cc1nc(-c2nn(-c3c(Cl)cc(C(F)(F)F)cc3Cl)nc2Cl)[nH]c1C#N	206 to 208 °C
O=c1[nH]nc(-c2cccc(C(F)(F)F)c2)c2ncccc12	210 to 215 °C
